From paper PMC11134608, “UBR5 forms ligand-dependent complexes on chromatin to regulate nuclear hormone receptor stability” (Molecular cell, 2023)

Tests used:
[1] = system: ER reporter (E3 ligase dependence); experiment: Targeted CRISPR screens, ER reporter K562 cells: E3 ligase used; format: cell-based, human; conditions: for E3 ligase used for ER degradation: K562 ER reporter, CRISPR screen; for E3 Ligase (Table S2): Supplemental Table S2
Description: To characterize the UPS pathway components involved in SERD-induced ER degradation, we performed CRISPR screens with our ER reporter in the presence multiple SERDs: fulvestrant, GDC-0927, elacestrant, giredestrant, camizestrant, amcenestrant, AZD-9496, brilanestrant, and LSZ-102. […] Taken together, these findings indicate that different classes of SERDs engage distinct ubiquitin ligases and degradation pathways to target ER.
The UPS and tiling CRISPR functional genomics screen was performed following previously described methods.[22] Briefly, the UPS CRISPR library targets 713 E1, E2, E3 ubiquitin ligases, and deubiquitinases and includes controls genes with a total of 2852 guide RNAs, cloned into the pXPR003 backbone. The UBR5 Tiling screen was created by CRISPR-SURF.[29] Viruses were produced in a T-175 format and ten percent by volume of the library virus was added to reporter cell lines in triplicates for transduction. Transduced cells were allowed to recover and expand for nine days, then treated with indicated ligand. Top and bottom 5% of cells by GFP signal were sorted for a total of at least 100,000 cells per replicate. Samples were processed as previously described.[22]
Reporter cell lines were treated with ATRA or 9-cis RA, and then sorted into four populations by eGFP/mCherry fluorescence ratios (Gates A-D), corresponding to the bottom and top 5–10% respectively (Figure S1D).[22],[23] Sorted cells were pelleted, lysed, and processed according to previous studies.[22] Briefly sgRNAs were amplified in two PCRs via Titanium Taq (Takara Bio 639210), Titanium Taq Buffer and 800uM dNTP mix and eight staggered forward primers. The first PCR also contained 200 nM SBS3-Stagger-pXPR003 forward primer and 200 nM SBS12-pXPR003 reverse primer (cycles: 5 minutes at 94°C, 15 × (30 sec at 94°C, 15 sec at 58°C, 30 sec at 72°C), 2 minutes at 72°C). Illumina adapters and barcodes were added in the second PCR (200 nM P5-SBS3 forward primer, 200 nM P7-barcode-SBS12 reverse primer). Samples were pooled and purified by agarose gel-electrophoresis (Qiagen) and NaOAc/isopropanol precipitation. Amplified guides were quantified by next-generation sequencing (Genomics Platform, Broad Institute), and analyzed for enrichment in Gate A over Gate D, representing degradation rescue.

[2] = system: ER reporter; experiment: ER reporter degradation; format: cell-based, human; conditions: 1 μM (legend, SERDs)
Description: Reporter cell lines were seeded in triplicate at a density of 1 million cells/ml in 100 μl per well in a 96 well plate and measured once. Ligand was added by Digital Dispenser (Tecan), and incubated at 37°C for the appropriate time before reading by flow cytometry. Cells were analyzed for GFP vs mCherry expression. GFP expression was normalized to mCherry signal and ligand treatments were compared to DMSO controls.

[3] = system: ER and UBR5; experiment: Co-immunoprecipitation of ER-GFP and UBR5 in K562; format: cell-based, human; conditions: K562 ER-GFP, with MG132, 16 h
Excerpt: Blotting was done as described above.
Fulvestrant GDC-0927 Elacestrant Giredestrant Camizestrant Amcenestrant […]
log2 Ratio log2 Ratio log2 Ratio log2 Ratio log2 Ratio log2 Ratio […]
Amcenestrant Camizestrant GiredestrantBrilanestrant Fulvestrant ElacestrantAmcenestrant Camizestrant Giredestrant Brilanestrant […]
50 FulvestrantBrilanestrant
Figure S8. Non-endogenousligands recruitdifferent E3 ligases to induce ER degradation,Related to Figure 6 […]
VHL are highlighted in red. (C) Degradation (GFP/mCherry) of ER-GFP in K562 reporter cell lines treated with shRNAs targeting UBR5 and the specified SERDs or ER PROTACs. (D) Degradation (GFP/mCherry) of ER-GFP in K562 reporter cell lines treated with sgRNAs targeting RNF111 and the specified SERDs or ER PROTACs. (E) Western blots of T47D cells […]
treated with or without Brilanestrant. (G) Bioluminescence Resonance Energy Transfer (BRET) assay of ER, treated +/- fulvestrant or brilanestrant. (n=6 two sided t-test) (H) Western blots of ER co-immunoprecipitations from K562 ER-GFP reporter cells treated with brilanestrant and MG132 for 16 hours, and blotted with antibodies specific for GFP, and UBR5 as indicated. NS, not […]

[4] = system: ER; experiment: ER degradation after RNF111 or UBR5 knockdown (reporter K562; T47D western); format: cell-based, human; conditions: K562 ER-GFP, shUBR5 / sgRNF111, Figure S8C, D
Description: Cells were analyzed for GFP vs mCherry expression.
Protein concentration was quantified via Pierce BCA Protein Assay Kit (ThermoFisher, 23225), and equal amounts of lysates were run on either SDS-PAGE 3–8% Tris-Acetate or 4–12% Bis-Tris Protein Gels (NuPAGE, ThermoFisher), then transferred to a PVDF membrane (Biorad, Wet Transfer System). Membranes were blocked for 30 minutes to 1 hour at room temperature in Odyssey Blocking Buffer/PBS (LI-COR Biosciences), and incubated with primary antibodies at 4 °C overnight. Stained membranes were washed three times in Tris-buffered saline with Tween 20 (TBS-T) and incubated for 1 hour at room temperature with secondary IRDye-conjugated antibodies (LI-COR Biosciences). Membranes were washed three times in TBS-T before imaging (Odyssey Imaging System, LI-COR Biosciences).

[5] = system: ER and RNF111; experiment: Co-immunoprecipitation of FLAG-RNF111 and ER-GFP in 293T; conditions: ± MG132
Description: (B) ER reporter degradation following 1 μM of specified SERD treatment. […] UBR5 is highlighted in blue, RNF111, CRBN, VHL are highlighted in red. (D) Western blots of T47D cells transduced with sgRNAs against RNF111 treated with or without fulvestrant. […] (NS, not significant, *p < 0.05, **p < 0.005, ***p < 0.0005, ****p < 0.00005, error bars represent SEM.)
Reporter cells (up to 100 million) were treated with ligand (ATRA, dexamethasone) and allowed to incubate for different time points. […] Lysates were incubated with GFP-Trap Magnetic Agarose beads (ChromoTek, GTMA-20) overnight at 4°C on a rotator. Beads were magnetically removed and washed three times with Pierce IP Lysis Buffer with ligand added before boiling in 1x NuPAGE LDS Sample Buffer (ThermoFischer, NP0007). […] Experiments were repeated and representative images are shown.

[6] = system: ER; conditions: cited from earlier work
Excerpt: SERDs are a class of molecules targeting the ER for the treatment of breast cancer. […] Given that UBR5 is similarly recruited to the NR hydrophobic cleft, we hypothesized that fulvestrant and other SERDs may employ a different mechanism for ER degradation. […] One of the best understood SERDs, fulvestrant, drastically remodels the hydrophobic cleft[16],[17] in a manner incompatible with UBR5 or NCOA binding. […] Strikingly, this correlates with clinical utility, hallmarked by the wide use of fulvestrant and recent approval of elacestrant,[53] both of which employ RNF111, in contrast to UBR5 SERDs (Table S2), none of which have been approved for clinical use. The heterogeneity of ER transcriptional pro ...

[7] = system: ER and RNF111; experiment: BRET assay of RNF111 and ER; format: cell-based, human
Excerpt: Bioluminescence resonance energy transfer (BRET) experiments were done using the NanoBRET PPI kit (Promega, N1821) according to manufacturer’s instructions.

| SMILES | E3 ligase used for ER degradation [1] | E3 Ligase (Table S2) [1] | ER reporter degradation [2] | ER and UBR5 interaction by co-immunoprecipitation [3] | regulated class of ER degradation (RNF111 or UBR5) [4] | association of RNF111 with ER by co-immunoprecipitation [5] | ER degradation (literature) ([6]; ref [17], [53]) | ER transcriptional profile following SERD treatment ([6]; ref [17],[55]) | effect on helix 12 and ER hydrophobic cleft ([6]; ref [54]) | ER-RNF111 BRET, significance (mBU) ([7]; Figure S8G, n = 6 two sided t-test) | association of RNF111 with ER by BRET ([7]; n = 6) |
| --- | --- | --- | --- | --- | --- | --- | --- | --- | --- | --- | --- |
| CC/C(=C(/c1ccc(/C=C/C(=O)O)cc1)c1ccc2[nH]ncc2c1)c1ccc(F)cc1Cl [brilanestrant] | required UBR5 for degradation | UBR5 | induced ER reporter degradation | increased ER and UBR5 interactions | UBR5 Regulated |  |  |  |  |  |  |
| C[C@]12CC[C@@H]3c4ccc(O)cc4C[C@@H](CCCCCCCCC[S+]([O-])CCCC(F)(F)C(F)(F)F)[C@H]3[C@@H]1CC[C@@H]2O (stereo partly drawn) [fulvestrant] | employed a different E3 ligase, RNF111 | RNF111 | induced ER reporter degradation |  | RNF111 Regulated | induces association of RNF111 with ER | lead to ER degradation | most antagonistic of tested SERDs | destabilize helix 12 and block the ER hydrophobic cleft, preventing coactivation | * (*p < 0.05) | induces association of RNF111 with ER |
